# Several values for one entry are separate records, joined by “and”; a condition that tells them apart may be missing. Identical values can stand only once.
# Test system: FA19-rpoH-lacZ
# Test: Gonococcal growth in liquid culture (GC broth) with hormones (Fig S7)
structure (smiles),measurement,setting,value
"CC(=O)[C@H]1CC[C@H]2[C@@H]3CCC4=CC(=O)CC[C@]4(C)[C@H]3CC[C@]12C [Progesterone, progesterone]",growth curve reading after BLANKING,"0 hr, 0.1 µM",0.013
same,"growth curve reading, raw replicates","0 hr, 0.1 µM",0.046
same,growth curve reading after BLANKING,"0 hr, 1 µM",0.013
same,"growth curve reading, raw replicates","0 hr, 1 µM",0.046
same,growth curve reading after BLANKING,"0 hr, 10 µM",0.013
same,"growth curve reading, raw replicates","0 hr, 10 µM",0.046
same,growth curve reading after BLANKING,"0 hr, 25 µM",0.013
same,"growth curve reading, raw replicates","0 hr, 25 µM",0.046
same,growth curve reading after BLANKING,"0 hr, 50 µM",0.013
same,"growth curve reading, raw replicates","0 hr, 50 µM",0.046
same,growth curve reading after BLANKING,"1.18 hr, 0.1 µM",0.018
same,"growth curve reading, raw replicates","1.18 hr, 0.1 µM",0.051 and 0.052
same,growth curve reading after BLANKING,"1.18 hr, 1 µM",0.020
same,"growth curve reading, raw replicates","1.18 hr, 1 µM",0.051 and 0.054
same,growth curve reading after BLANKING,"1.18 hr, 10 µM",0.019
same,"growth curve reading, raw replicates","1.18 hr, 10 µM",0.051 and 0.052
same,growth curve reading after BLANKING,"1.18 hr, 25 µM",0.018
same,"growth curve reading, raw replicates","1.18 hr, 25 µM",0.051 and 0.052
same,growth curve reading after BLANKING,"1.18 hr, 50 µM",0.017
same,"growth curve reading, raw replicates","1.18 hr, 50 µM",0.049 and 0.051
same,growth curve reading after BLANKING,"2 hr, 0.1 µM",0.029
same,"growth curve reading, raw replicates","2 hr, 0.1 µM",0.062
same,growth curve reading after BLANKING,"2 hr, 1 µM",0.031
same,"growth curve reading, raw replicates","2 hr, 1 µM",0.063 and 0.066
same,growth curve reading after BLANKING,"2 hr, 10 µM",0.029
same,"growth curve reading, raw replicates","2 hr, 10 µM",0.062
same,growth curve reading after BLANKING,"2 hr, 25 µM",0.030
same,"growth curve reading, raw replicates","2 hr, 25 µM",0.062 and 0.065
same,growth curve reading after BLANKING,"2 hr, 50 µM",0.026
same,"growth curve reading, raw replicates","2 hr, 50 µM",0.060 and 0.059
same,growth curve reading after BLANKING,"3 hr, 0.1 µM",0.038
same,"growth curve reading, raw replicates","3 hr, 0.1 µM",0.072 and 0.070
same,growth curve reading after BLANKING,"3 hr, 1 µM",0.046
same,"growth curve reading, raw replicates","3 hr, 1 µM",0.080 and 0.077
same,growth curve reading after BLANKING,"3 hr, 10 µM",0.037
same,"growth curve reading, raw replicates","3 hr, 10 µM",0.070
same,growth curve reading after BLANKING,"3 hr, 25 µM",0.046
same,"growth curve reading, raw replicates","3 hr, 25 µM",0.079
same,growth curve reading after BLANKING,"3 hr, 50 µM",0.033
same,"growth curve reading, raw replicates","3 hr, 50 µM",0.067 and 0.065
same,growth curve reading after BLANKING,"4 hr, 0.1 µM",0.053
same,"growth curve reading, raw replicates","4 hr, 0.1 µM",0.086
same,growth curve reading after BLANKING,"4 hr, 1 µM",0.062
same,"growth curve reading, raw replicates","4 hr, 1 µM",0.093 and 0.096
same,growth curve reading after BLANKING,"4 hr, 10 µM",0.050
same,"growth curve reading, raw replicates","4 hr, 10 µM",0.082 and 0.084
same,growth curve reading after BLANKING,"4 hr, 25 µM",0.062
same,"growth curve reading, raw replicates","4 hr, 25 µM",0.096 and 0.093
same,growth curve reading after BLANKING,"4 hr, 50 µM",0.044
same,"growth curve reading, raw replicates","4 hr, 50 µM",0.076 and 0.078
same,growth curve reading after BLANKING,"5 hr, 0.1 µM",0.071
same,"growth curve reading, raw replicates","5 hr, 0.1 µM",0.103 and 0.104
same,growth curve reading after BLANKING,"5 hr, 1 µM",0.079
same,"growth curve reading, raw replicates","5 hr, 1 µM",0.110 and 0.113
same,growth curve reading after BLANKING,"5 hr, 10 µM",0.065
same,"growth curve reading, raw replicates","5 hr, 10 µM",0.096 and 0.099
same,growth curve reading after BLANKING,"5 hr, 25 µM",0.078
same,"growth curve reading, raw replicates","5 hr, 25 µM",0.113 and 0.110
same,growth curve reading after BLANKING,"5 hr, 50 µM",0.056
same,"growth curve reading, raw replicates","5 hr, 50 µM",0.087 and 0.090
same,growth curve reading after BLANKING,"5.95 hr, 0.1 µM",0.089
same,"growth curve reading, raw replicates","5.95 hr, 0.1 µM",0.121 and 0.123
same,growth curve reading after BLANKING,"5.95 hr, 1 µM",0.097
same,"growth curve reading, raw replicates","5.95 hr, 1 µM",0.130
same,growth curve reading after BLANKING,"5.95 hr, 10 µM",0.080
same,"growth curve reading, raw replicates","5.95 hr, 10 µM",0.112 and 0.115
same,growth curve reading after BLANKING,"5.95 hr, 25 µM",0.095
